Experimental data taken from ChEMBL document CHEMBL5661943, “ASAP - In vitro antiviral effect” (2024).

Tests used:
Zika virus = experiment: Functional CPE-based assay to measure dose dependent changes in antiviral-drug inhibitory efficacy against Zika virus MR766 in Vero E6 miRFP670 cells (cotreated with P-gp inhibitor, CP100356). Cells are treated with antiviral candidates that are serially diluted. EC50 is reported via analysis of MTS assay as a readout of CPE. The assay has been performed by KU Leuven.; assay type: organism-based, Chlorocebus sabaeus, Vero C1008; conditions: Zika virus; for EC90: P-gp concentration 500 nM, P-gp inhibitor CP100356
dengue virus type 2 = experiment: Functional assay to measure dose dependent changes in antiviral-drug inhibitory efficacy against Dengue virus type 2 New Guinea C in Vero E6 miRFP670 cells (cotreated with P-gp inhibitor, CP100356). Cells are treated with antiviral candidates that are serially diluted, following infection, cells are fixed. EC50 is reported via analysis of fluorescence intensity using high-content imager. The …; assay type: organism-based, Chlorocebus sabaeus, Vero C1008; conditions: for EC90: P-gp concentration 500 nM, P-gp inhibitor CP100356

SMILES: Cc1ccc(-c2nc3c(C(=O)Nc4ccc5c(c4)CNC5)cc(F)cc3[nH]2)cc1
- EC50 (Zika virus; Vero C1008): > 50 µM
- EC90 (Zika virus; Vero C1008, Baseline response 0 %, Hill slope 1.828, Maximum measured 11.314 %, Maximum response 100 %, Minimum measured -7.525 %, R squared 0.394): > 50 µM
- EC50 (dengue virus type 2; Dengue virus, Vero C1008): > 50 µM
- EC90 (dengue virus type 2; Dengue virus, Vero C1008, Baseline response 0 %, Hill slope -1.93, Maximum measured 263.734 %, Maximum response 225.04 %, Minimum measured 80.528 %, R squared 0.789): > 50 µM

SMILES: O=C(Nc1ccc2c(c1)CNC2)c1cc(Cl)cc2c1cnn2C[C@H]1CCCO1
- EC50 (Zika virus; Vero C1008): 6.36 µM
- EC90 (Zika virus; Vero C1008, Baseline response 0 %, Hill slope 36.566, Maximum measured 122.907 %, Maximum response 100 %, Minimum measured 2.24 %, R squared 0.938): 6.75 µM
- EC50 (dengue virus type 2; Dengue virus, Vero C1008): > 50 µM
- EC90 (dengue virus type 2; Dengue virus, Vero C1008, Baseline response 0 %, Hill slope 0.931, Maximum measured 200.765 %, Maximum response 100 %, Minimum measured 63.333 %, R squared 0.208): > 50 µM

SMILES: N[C@H]1Cc2ccc(NC(=O)c3cccc4c3CC(=O)N4)cc2C1
- EC50 (Zika virus; Vero C1008): > 50 µM
- EC90 (Zika virus; Vero C1008, Maximum measured 1.094 %, Minimum measured -1.183 %): > 50 µM
- EC50 (dengue virus type 2; Dengue virus, Vero C1008): > 50 µM
- EC90 (dengue virus type 2; Dengue virus, Vero C1008, Maximum measured 137.168 %, Minimum measured 87.065 %): > 50 µM

SMILES: O=C(Nc1cnc2c(c1)CNC2)c1cc(F)cc2[nH]ncc12
- EC50 (Zika virus; Vero C1008): > 50 µM
- EC90 (Zika virus; Vero C1008, Baseline response 0 %, Hill slope 2.313, Maximum measured 10.311 %, Maximum response 100 %, Minimum measured -0.319 %, R squared 0.353): > 50 µM
- EC50 (dengue virus type 2; Dengue virus, Vero C1008): > 50 µM
- EC90 (dengue virus type 2; Dengue virus, Vero C1008, Maximum measured 142.482 %, Minimum measured 85.178 %): > 50 µM

SMILES: Cn1cc2c(C(=O)Nc3ccc4c(c3)CNC4)cc(F)cc2n1
- EC50 (Zika virus; Vero C1008): 3.02 µM
- EC90 (Zika virus; Vero C1008, Baseline response 0 %, EC90 CI (lower) 4.41 uM, EC90 CI (upper) 19.306 uM, Hill slope 1.966, Maximum measured 124.261 %, Maximum response 100 %, Minimum measured 18.013 %, R squared 0.888): 9.23 µM
- EC50 (dengue virus type 2; Dengue virus, Vero C1008): > 50 µM
- EC90 (dengue virus type 2; Dengue virus, Vero C1008, Baseline response 0 %, Hill slope 0.83, Maximum measured 109.464 %, Maximum response 100 %, Minimum measured 93.167 %, R squared 0.272): > 50 µM

SMILES: O=C(Nc1ccc2c(c1)CNC2)c1cc(Cl)cc2ccccc12
- EC50 (Zika virus; Vero C1008): > 50 µM
- EC90 (Zika virus; Vero C1008, Baseline response 0 %, Hill slope -0.363, Maximum measured 9.094 %, Maximum response 100 %, Minimum measured -16.765 %, R squared 0.057): > 50 µM
- EC50 (dengue virus type 2; Dengue virus, Vero C1008): > 50 µM
- EC90 (dengue virus type 2; Dengue virus, Vero C1008, Baseline response 0 %, Hill slope 0.531, Maximum measured 139.444 %, Maximum response 100 %, Minimum measured 57.429 %, R squared 0.178): > 50 µM

SMILES: O=C(Nc1cc(Cl)cc(-c2ccc3[nH]c(C(=O)O)cc3c2)c1)OCc1ccccc1
- EC50 (Zika virus; Vero C1008): > 25 µM
- EC90 (Zika virus; Vero C1008, Baseline response 0 %, Hill slope 14.672, Maximum measured 32.342 %, Maximum response 100 %, Minimum measured -3.566 %, R squared 0.926): > 25 µM
- EC90 (dengue virus type 2; Baseline response 0 %, EC90 CI (lower) 8.977 uM, EC90 CI (upper) 21.139 uM, Hill slope -3.716, Maximum measured 111.991 %, Maximum response 100 %, Minimum measured 0.586 %, R squared 0.931): 45 µM
- EC90 (dengue virus type 2; Baseline response 0 %, Hill slope -1.036, Maximum measured 105.577 %, Maximum response 100 %, Minimum measured 51.847 %, R squared 0.535): > 12.5 µM
- EC50 (dengue virus type 2; Dengue virus, Vero C1008): 24.9 µM
- EC50 (dengue virus type 2; vero c1008): > 12.5 µM

SMILES: O=C(NC1CCOCC1)[C@H](Nc1ccc2c(c1)CNC2)c1cc(Cl)cc2[nH]ncc12
- EC50 (Zika virus; Vero C1008): 16.8 µM
- EC90 (Zika virus; Vero C1008, Baseline response 0 %, Hill slope 1.579, Maximum measured 82.863 %, Maximum response 100 %, Minimum measured -0.215 %, R squared 0.968): > 50 µM
- EC50 (dengue virus type 2; Dengue virus, Vero C1008): > 50 µM
- EC90 (dengue virus type 2; Dengue virus, Vero C1008, Maximum measured 134.779 %, Minimum measured 105.958 %): > 50 µM

SMILES: COc1cc(-c2cc(NC(=O)c3cc(F)cc4[nH]ncc34)cc3c2CNC3)ccn1
- EC50 (Zika virus; Vero C1008): 3.92 µM
- EC90 (Zika virus; Vero C1008, Baseline response 0 %, EC90 CI (lower) 3.129 uM, EC90 CI (upper) 14.718 uM, Hill slope 4.011, Maximum measured 135.364 %, Maximum response 100 %, Minimum measured -0.295 %, R squared 0.873): 6.79 µM
- EC50 (dengue virus type 2; Dengue virus, Vero C1008): > 50 µM
- EC90 (dengue virus type 2; Dengue virus, Vero C1008, Baseline response 0 %, Hill slope 0.386, Maximum measured 113.678 %, Maximum response 100 %, Minimum measured 63.234 %, R squared 0.283): > 50 µM

SMILES: COc1cc(Br)cc(C(=O)Nc2ccc3c(c2)CNC3)c1
- EC50 (Zika virus; Vero C1008): 12.8 µM
- EC90 (Zika virus; Vero C1008, Baseline response 0 %, EC90 CI (lower) 14.493 uM, EC90 CI (upper) 28.879 uM, Hill slope 4.703, Maximum measured 104.946 %, Maximum response 100 %, Minimum measured 1.527 %, R squared 0.964): 20.5 µM
- EC50 (dengue virus type 2; Dengue virus, Vero C1008): > 25 µM
- EC90 (dengue virus type 2; Dengue virus, Vero C1008, Baseline response 0 %, Hill slope -0.242, Maximum measured 88.855 %, Maximum response 100 %, Minimum measured 49.171 %, R squared 0.071): > 25 µM

SMILES: O=C(Nc1ccc2c(c1)CNC2)c1cc(Cl)cc2c1NCCC2
- EC50 (Zika virus; Vero C1008): > 50 µM
- EC90 (Zika virus; Vero C1008, Maximum measured 8.781 %, Minimum measured -16.872 %): > 50 µM
- EC50 (dengue virus type 2; Dengue virus, Vero C1008): > 50 µM
- EC90 (dengue virus type 2; Dengue virus, Vero C1008, Baseline response 0 %, Hill slope 0.298, Maximum measured 134.107 %, Maximum response 100 %, Minimum measured 52.01 %, R squared 0.047): > 50 µM

SMILES: O=C(Nc1ccc2c(c1)CNC2)c1cc(Cl)cc2[nH]c(-c3cc(C4CC4)[nH]n3)nc12
- EC50 (Zika virus; Vero C1008): > 0.781 µM
- EC90 (Zika virus; Vero C1008, Baseline response 0 %, Hill slope 2.134, Maximum measured 7.792 %, Maximum response 100 %, Minimum measured 1.889 %, R squared 0.797): > 0.781 µM
- EC50 (dengue virus type 2; Dengue virus, Vero C1008): > 3.12 µM
- EC90 (dengue virus type 2; Dengue virus, Vero C1008, Maximum measured 213.616 %, Minimum measured 78.099 %): > 3.12 µM

SMILES: COc1cccc(-c2nc3c(C(=O)Nc4ccc5c(c4)CNC5)cc(F)cc3[nH]2)c1
- EC50 (Zika virus; Vero C1008): > 50 µM
- EC90 (Zika virus; Vero C1008, Baseline response 0 %, Hill slope -1.02, Maximum measured 11.362 %, Maximum response 100 %, Minimum measured -3.329 %, R squared 0.203): > 50 µM
- EC50 (dengue virus type 2; Dengue virus, Vero C1008): > 50 µM
- EC90 (dengue virus type 2; Dengue virus, Vero C1008, Maximum measured 205.039 %, Minimum measured 143.371 %): > 50 µM

SMILES: O=C1Nc2ccc(C(=O)Nc3ccc4c(c3)CNC4)cc2C1=O
- EC50 (Zika virus; Vero C1008): > 50 µM
- EC90 (Zika virus; Vero C1008, Baseline response 0 %, Hill slope 1.301, Maximum measured 24.355 %, Maximum response 100 %, Minimum measured -0.531 %, R squared 0.91): > 50 µM
- EC50 (dengue virus type 2; Dengue virus, Vero C1008): > 50 µM
- EC90 (dengue virus type 2; Dengue virus, Vero C1008, Maximum measured 138.129 %, Minimum measured 92.792 %): > 50 µM

SMILES: Cc1ncc(-c2cc(F)cc(C(=O)Nc3ccc4c(c3)CNC4)c2)s1
- EC50 (Zika virus; Vero C1008): 3.77 µM
- EC90 (Zika virus; Vero C1008, Baseline response 0 %, EC90 CI (lower) 3.392 uM, EC90 CI (upper) 11.052 uM, Hill slope 4.52, Maximum measured 126.226 %, Maximum response 100 %, Minimum measured 6.868 %, R squared 0.912): 6.12 µM
- EC50 (dengue virus type 2; Dengue virus, Vero C1008): > 25 µM
- EC90 (dengue virus type 2; Dengue virus, Vero C1008, Maximum measured 125.186 %, Minimum measured 53.808 %): > 25 µM

SMILES: Cc1nc2c(C(=O)Nc3ccc4c(c3)CNC4)cc(Cl)cc2[nH]1
- EC50 (Zika virus; Vero C1008): > 50 µM
- EC90 (Zika virus; Vero C1008, Maximum measured 8.786 %, Minimum measured -9.149 %): > 50 µM
- EC50 (dengue virus type 2; Dengue virus, Vero C1008): > 6.25 µM
- EC90 (dengue virus type 2; Dengue virus, Vero C1008, Baseline response 0 %, Hill slope -1.031, Maximum measured 89.345 %, Maximum response 100 %, Minimum measured 48.357 %, R squared 0.44): > 6.25 µM

SMILES: Clc1cc(CNc2ccc3c(c2)CNC3)c2cn[nH]c2c1
- EC50 (Zika virus; Vero C1008): 17.9 µM
- EC90 (Zika virus; Vero C1008, Baseline response 0 %, Hill slope 3.353, Maximum measured 76.866 %, Maximum response 100 %, Minimum measured 0.884 %, R squared 0.96): > 25 µM
- EC50 (dengue virus type 2; Dengue virus, Vero C1008): 3.18 µM
- EC90 (dengue virus type 2; Dengue virus, Vero C1008, Baseline response 0 %, Hill slope -0.438, Maximum measured 74.942 %, Maximum response 100 %, Minimum measured 39.794 %, R squared 0.558): > 12.5 µM

SMILES: O=C(Nc1ccc2c(c1)CNC2)c1cc(Cl)cc2[nH]c(-c3ccc(F)cc3O)nc12
- EC50 (Zika virus; Vero C1008): > 0.781 µM
- EC90 (Zika virus; Vero C1008, Baseline response 0 %, Hill slope 0.819, Maximum measured -0.871 %, Maximum response 100 %, Minimum measured -1.788 %, R squared 0.426): > 0.781 µM
- EC50 (dengue virus type 2; Dengue virus, Vero C1008): > 1.56 µM
- EC90 (dengue virus type 2; Dengue virus, Vero C1008, Maximum measured 186.201 %, Minimum measured 124.759 %): > 1.56 µM

SMILES: O=C(Nc1ccc2c(c1)CNC2)c1cc(F)cc2c1CCC2
- EC50 (Zika virus; Vero C1008): 1.81 µM
- EC90 (Zika virus; Vero C1008, Baseline response 0 %, EC90 CI (lower) 1.329 uM, EC90 CI (upper) 15.086 uM, Hill slope 2.425, Maximum measured 145.547 %, Maximum response 100 %, Minimum measured 22.113 %, R squared 0.732): 4.48 µM
- EC50 (dengue virus type 2; Dengue virus, Vero C1008): > 6.25 µM
- EC90 (dengue virus type 2; Dengue virus, Vero C1008, Baseline response 0 %, Hill slope -2.434, Maximum measured 106.021 %, Maximum response 100 %, Minimum measured 60.209 %, R squared 0.87): > 6.25 µM
